The target of assay [1] is T1, IRAK3 (Homo sapiens, UniProt Q9Y616).
T1 construct: IRAK Endogenous HTRF Degradation Assay; endogenous in cells
T1 sequence (Q9Y616 1-596): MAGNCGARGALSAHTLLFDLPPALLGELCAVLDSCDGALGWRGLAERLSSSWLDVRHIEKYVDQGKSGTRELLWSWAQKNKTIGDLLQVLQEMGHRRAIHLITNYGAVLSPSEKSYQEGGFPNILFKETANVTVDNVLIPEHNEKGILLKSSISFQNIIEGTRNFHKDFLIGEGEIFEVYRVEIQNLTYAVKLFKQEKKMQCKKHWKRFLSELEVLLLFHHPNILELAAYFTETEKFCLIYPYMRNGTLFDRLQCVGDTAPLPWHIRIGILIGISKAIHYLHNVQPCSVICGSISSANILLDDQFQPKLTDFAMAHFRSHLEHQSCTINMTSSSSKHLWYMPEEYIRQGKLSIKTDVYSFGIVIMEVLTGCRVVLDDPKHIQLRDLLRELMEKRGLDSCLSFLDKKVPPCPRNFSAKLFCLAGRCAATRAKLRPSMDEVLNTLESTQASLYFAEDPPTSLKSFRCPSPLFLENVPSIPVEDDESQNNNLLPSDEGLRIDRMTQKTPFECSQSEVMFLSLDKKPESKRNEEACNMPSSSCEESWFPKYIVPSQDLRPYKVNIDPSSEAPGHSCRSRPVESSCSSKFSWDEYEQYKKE
Description: IRAK3 biochemical binding assay (LanthaScreen Eu Kinase Binding, TR-FRET). The procedure:
Example B3. IRAK3 Biochemical Binding Assay
The LanthaScreen® Eu Kinase Binding assay was performed as described by the vendor (ThermoFisher Scientific Waltham, MA). Briefly, 100× solutions of compound were prepared in DMSO via serial dilution of the 10 mM stock solution in a 384-well reagent plate using 3-fold intervals to achieve final concentrations. 1 μL of the compound dilution series were added to the corresponding wells of a 384-well reagent plate containing 32.3 μL of 1× buffer (50 mM HEPES pH 7.4, […], 1 mM EGTA, 0.01% Brij-35). 5 μL of the buffer diluted compounds were transferred to the corresponding wells of a 384-well assay plate. 5 μL of 3× tracer was transferred to each well of the assay plate for a final tracer concentration of 10 nM. Finally, 5 μL of the 3×Eu-Anti-GST and IRAK3 mix was transferred to each well for a final concentration of 2 nM and 10 nM respectively. Reactions were allowed to incubate for 1 hour at room temperature. TR-FRET signal of the interaction (λex340/λem 665/λem 615) was read at room temperature with a delay time of 100 ρs and an integration time of 200 ρs using an Envision plate reader. Background corrected emission signal ratios at each compound concentration were used to calculate percentage of inhibition (% Inhibition). Plots of % Inhibition versus inhibitor concentrations were fit according to a dose-response equation (Eq. 1) to generate IC50 and Hill slope values using Dotmatics software (Dotmatics, Bishops Stortford, Hertfordshire, England).
Using these assays, IC50, Dmax, EC50, and DC50 values of the following compounds were determined. Dmax is defined as the maximum percent degradation achieved and DC50 is the concentration at which 50% degradation is achieved.

For assay [2], the target named is T2, IRAK3-ePL (Homo sapiens, UniProt Q9Y616).
T2 construct: expressed in transfected cells; host or cells: 293T CRBN OE/GSPT1 G575N KI cells, lentiviral transduction, puromycin selected
Put plainly: IRAK3-ePL overexpressing degradation assay (InCELL Hunter luminescence, dose response). The format is cell-based. The conditions noted are these: for IRAK3 ePL degradation Ymin: lowest percentage of target protein remaining following compound treatment; for DC50: read-out: IRAK3 ePL degradation EC50. The procedure: Example B1. IRAK3-ePL Overexpressing Degradation Assay
Stable cell lines were generated by the following protocol. 3×10^5 Lenti-X 293T cells (Clonetech) were plated in 0.8 mL of media in a 12-well plate and incubated overnight at 37° C./5% CO2. Packaging plasmid (0.4 μg, pMD), envelope plasmid (0.4 μg, pSP), and lentiviral transfer IRAK3-ePL plasmid (0.8 μg, TRAK3 sequence NM_007199.3) were mixed in 0.1 mL of Opti-MEM and incubated for 5 min. Simultaneously, 2.4 μL of Lipofectamine 2000 (Invitrogen) was added to 0.1 mL of Opti-MEM (Gibco) and incubated for 5 min. The plasmid DNA and lipofectamine were combined and the mixture was allowed to incubate for 20 min.DNA:Lipofectamine Opti-MEM mixtures were then added to previously plated cells dropwise and the cells were incubated for ~16 h at 37° C./5% CO2. Following incubation, the media was removed and 1.2 mL of fresh media was added per well. Lenti-X 293T cells were incubated for ~30 h at 37° C./5% CO2. […] Following incubation, media was removed from the Lenti-X 293T wells and passed through a […] filter. Part of the viral supernatant was used to transduce cells and the rest was stored at −80° C. Viruses were then added individually (0.5 mL virus) to each well of the 293T^CRBN OE/GSPT1 G575N KI cells, followed by addition of polybrene (10 mg/mL Millipore) to each well at a final concentration of 5.0 μg/mL. Cells were incubated for ~24 h at 37° C./5% CO2. After aspirating media off plates, cells were washed with DPBS, trypsinized and plated in a 10 cm dish in 15 mL of media and […] puromycin. Following incubation of cells for ~72 h at 37° C./5% CO2, media was aspirated off plates, and cells were washed with DPBS and trypsinized. The cells were plated in a 15 cm dish in 40 mL of media with 1.0 μg/mL Puromycin (Gibco) and incubated for ~72 h at 37° C./5% CO2. Following incubation, media was removed and cells were washed with DPBS and trypsinized. The majority of cells were resuspended in Invitrogen freezing media and stored away (~6-8×10^6 cells/vial).
IRAK3-ePL cellular dose response curve degradation assays were performed by the following protocol. Compounds to be tested were dispensed into a white 384-well tissue-culture treated plate using an acoustic liquid handler. Dilutions were prepared based on a 25 μL assay volume in duplicate 10 point 3-fold serial dilutions starting with a 10 μM dose. Negative control wells were included, which only contain 0.2% DMSO to calculate 100% signal. Positive control wells containing 30 μM Ataluren (luciferase inhibitor) were included to calculate the background signal level. All wells were backfilled to a final DMSO concentration of 0.2% to ensure DMSO uniformity across wells. IRAK3-ePL expressing cells (IRAK3-ePL Lenti-X 293T^CRBN/GSPT1 G575N) were washed, trypsinized, counted, and resuspended in fresh DMEM (Gibco) to give a cell concentration of 200,000 cells/mL. 25 μL of cells (5,000 cells/well) were dispensed into the wells of the 384-well plate prespotted with compounds in the previous step and incubated overnight at 37° C./5% CO2. Following incubation, the 384-well plate was taken out of the incubator and left at room temperature for 30 min. InCELL hunter reagent was prepared according to manufacturer's instructions (EA reagent, lysis buffer, and substrate reagent in a 1:1:4 ratio, Cat #96-0002, DiscoverX), which was added to the 384-well plate 25 μL per well. Following the incubation of the plate for 1 h at room temperature, the luminescence signal was read using a ViewLux plate reader. Data was processed and analyzed in ActivityBase software. In short, the average luminescence values of the positive control wells were subtracted from the rest of the wells for background correction, and all luminescence values were normalized to the DMSO control wells. The average value of the DMSO control wells was set to equal 100% of the relative IRAK3-ePL protein levels. […]

The structures appear in SMILES notation.

In turn, `Cc1cc(-c2cnc(Nc3cnn([C@H]4CCCN(CCN5CCN(c6ccc(C7CCC(=O)NC7=O)cc6)CC5)CC4)c3)c3nccn23)c(F)cc1F` (single isomer, unassigned) [Compound 111] registered an IC50 in assay [1] of 0.05 nM.
In assay [1], `Cc1cc(-c2cnc(Nc3cnn([C@@H]4CCCN(CCN5CCN(c6ccc(C7CCC(=O)NC7=O)cc6)CC5)CC4)c3)c3nccn23)c(F)cc1F` (single isomer, unassigned) [Compound 112] yielded an IC50 of 0.48 nM.
For `Cc1cc(-c2cnc(Nc3cnn(C4CCN(CCN5CCN(c6ccc(C7CCC(=O)NC7=O)cc6Cl)CC5)CC4)c3)c3nccn23)c(F)cc1F` (centres unmarked) [Compound 43, 3-(3-chloro-4-(4-(2-(4-(4-((5-(2,4-difluoro-5-methylphenyl)imdazo [1,2-a]pyrazin-8-yl)amino)-1H-pyrazol-1-yl)piperidin-1-yl)ethyl)piperazin-1-yl)phenyl) piperidine-2,6-dione], in assay [2], the “IRAK3 ePL degradation Ymin” value amounted to 24% and the DC50 amounted to 2.8 nM.
As to `O=C1CCC(c2ccc(N3CCN(CCN4CCC(n5cc(Nc6ncc(C7CC7)n7ccnc67)cn5)CC4)CC3)cc2)C(=O)N1` (centres unmarked) [Compound 46, 3-(4-(4-(2-(4-(4-((5-cyclopropylimidazo[1,2-a]pyrazin-8-yl)amino)-1H-pyrazol-1-yl)piperidin-1-yl)ethyl)piperazin-1-yl)phenyl) piperidine-2,6-dione], in assay [2], the “IRAK3 ePL degradation Ymin” value turned out to be 24% and the DC50 came out at 0.51 nM.
In the case of `O=C1CCC(c2ccc(N3CCN(CC[C@H]4CC[C@H](n5cc(Nc6ncc(C7CC7)n7ccnc67)cn5)CC4)CC3)cc2)C(=O)N1` (stereo partly drawn) [Compound 47, 3-(4-(4-(2-((trans)-4-(4-((5-cyclopropylimidazo[1,2-a]pyrazin-8-yl)amino)-1H-pyrazol-1-yl)cyclohexyl)ethyl)piperazin-1-yl)phenyl) piperidine-2,6-dione], in assay [2], the “IRAK3 ePL degradation Ymin” value stood at 23% and the DC50 was 0.61 nM.
The like results for `CN1CCOc2ccc(-c3cnc(Nc4cnn(C5CCN(CCN6CCN(c7ccc(C8CCC(=O)NC8=O)cc7)CC6)CC5)c4)c4nccn34)cc21` (centres unmarked) [Compound 48, 3-(4-(4-(2-(4-(4-((5-(4-methyl-3,4-dihydro-2H-benzo[b][1,4]oxazin-6-yl)imidazo[1,2-a]pyrazin-8-yl)amino)-1H-pyrazol-1-yl)piperidin-1-yl)ethyl)piperazin-1-yl)phenyl) piperidine-2,6-dione] were, in that order, 24% and 0.77 nM.
The like results for `Cc1cc(-c2cnc(Nc3cnn(C4CCN(CCN5CCN(c6ccc(C7CCC(=O)NC7=O)cc6F)CC5)CC4)c3)c3nccn23)c(F)cc1F` (centres unmarked) [Compound 49, 3-(4-(4-(2-(4-(4-((5-(2,4-difluoro-5-methylphenyl)imdazo [1,2-a]pyrazin-8-yl)amino)-1H-pyrazol-1-yl)piperidin-1-yl)ethyl)piperazin-1-yl)-3-fluorophenyl)piper idine-2,6-dione] were, in that order, 24% and 2.4 nM.
For `Cc1cc(-c2cnc(Nc3cnn([C@H]4C[C@H](CCN5CCN(c6ccc(C7CCC(=O)NC7=O)cc6)CC5)C4)c3)c3nccn23)c(F)cc1F` (stereo partly drawn) [Compound 66, 3-(4-(4-(2-((trans)-3-(4-((5-(2,4-difluoro-5-methylphenyl)imidazo[1,2-a]pyrazin-8-yl)amino)-1H-pyrazol-1-yl)cyclobutyl)ethyl)piperazin-1-yl)phenyl) piperidine-2,6-dione], in assay [2], the “IRAK3 ePL degradation Ymin” value turned out to be 32% and the DC50 is 9.6 nM.
With `Cc1cc(-c2cnc(Nc3cnn([C@H]4CC[C@H](CN5CCN(c6ccc(C7CCC(=O)NC7=O)cc6)CC5)CC4)c3)c3nccn23)c(F)cc1F` (stereo partly drawn) [Compound 67, 3-(4-(4-(((trans)-4-(4-((5-(2,4-difluoro-5-methylphenyl)imidazo[1,2-a]pyrazin-8-yl)amino)-1H-pyrazol-1-yl)cyclohexyl)methyl)piperazin-1-yl)phenyl) piperidine-2,6-dione], in assay [2], the “IRAK3 ePL degradation Ymin” value is on record as 38% and the DC50 was found to be 5.5 nM.
With `O=C1CCC(c2ccc(N3CCN(CCN4CCC(n5cc(Nc6ncc(C7=CCCC7)n7ccnc67)cn5)CC4)CC3)cc2)C(=O)N1` (centres unmarked) [Compound 68, 3-(4-(4-(2-(4-(4-((5-(cyclopent-1-en-1-yl)imidazo[1,2-a]pyrazin-8-yl)amino)-1H-pyrazol-1-yl)piperidin-1-yl)ethyl)piperazin-1-yl)phenyl) piperidine-2,6-dione], in assay [2], the “IRAK3 ePL degradation Ymin” value is recorded as 24% and the DC50 is 0.54 nM.
`Cc1nc(Nc2cnn(C3CCN(CCN4CCN(c5ccc(C6CCC(=O)NC6=O)cc5)CC4)CC3)c2)c2nccn2c1C` (centres unmarked) [Compound 84, 3-(4-(4-(2-(4-(4-((5,6-dimethylimidazo[1,2-a]pyrazin-8-yl)amino)-1H-pyrazol-1-yl)piperidin-1-yl)ethyl)piperazin-1-yl)phenyl)piperidine-2,6-dione] returned an IC50 in assay [1] of 24 nM.
`O=C1CCC(c2ccc(N3CCN(CCN4CCC(n5cc(Nc6ncc(-c7ccc8c(c7)CC8)n7ccnc67)cn5)CC4)CC3)cc2)C(=O)N1` (centres unmarked) [Compound 85, 3-(4-(4-(2-(4-(4-((5-(bicyclo[4.2.0]octa-1(6),2,4-trien-3-yl)imidazo[1,2-a]pyrazin-8-yl)amino)-1H-pyrazol-1-yl)piperidin-1-yl)ethyl)piperazin-1-yl)phenyl) piperidine-2,6-dione] showed an IC50 in assay [1] of 25 nM.

For orientation: IC50 means the concentration at which inhibition is half-maximal. A high value points to a need for much substance.

The values are drawn from patent US20260216347A1, “Substituted Imidazo-Based Compounds as Ligand Directed Degraders of IRAK3” (Celgene Corporation, priority 2022, published 2026).
